Laboratory results as given in patent US20190352663A1 (priority 2018, published 2019).

Experiments:
[1] = test system: CsPR1; type: in vivo, C. sinensis; details: 2 mM sprayed on leaves; 48 hours
[2] = test system: CsSAG12-4; type: in vivo, C. sinensis; details: 2 mM sprayed on leaves; 48 hours
[3] = test system: CsSAG12-1; type: in vivo, C. sinensis; details: 2 mM sprayed on leaves; 48 hours; not statistically significant
[4] = test system: CsAALP; type: in vivo, C. sinensis; details: 2 mM sprayed on leaves; 48 hours; not statistically significant
[5] = test system: PtoDC3000Δcip1; type: cell-based, Pseudomonas syringae pv. tomato; details: 100 μg/mL
[6] = target: CsRD21a-Flag expressed in N. benthamiana and secreted into the apoplast (Citrus sinensis); test: cell-based or functional assay
[7] = target: papain (Sigma-Aldrich), a PLCP from papaya (papaya) (UniProt P00784); test: cell-based or functional assay
UniProt P00784, sequence (P00784 134-345 limits assumed): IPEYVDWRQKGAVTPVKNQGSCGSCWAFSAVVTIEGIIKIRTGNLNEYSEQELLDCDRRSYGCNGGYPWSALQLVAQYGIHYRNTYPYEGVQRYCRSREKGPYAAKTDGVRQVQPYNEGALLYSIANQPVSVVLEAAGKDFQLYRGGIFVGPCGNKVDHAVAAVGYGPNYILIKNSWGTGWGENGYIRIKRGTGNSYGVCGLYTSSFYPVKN

With `O=C(O)c1ccccc1O` [SA, salicylic acid] the “expression of CsPR1” value [1] was “increase”, the “expression of CsSAG12-4” value [2] was “significantly up-regulated” and the “expression of CsSAG12-1” value [3] was “trend of increased expression”. For the same compound, the “expression of CsAALP” value [4] was “trend of increased expression”.

In the case of papain, the “inhibitory effect on bacterial growth in artificial media” value [5] is reported as “not observed”.

Work on “purified recombinant SDE1 protein (tag-free after removal of the His-SUMO tag)” yielded a CsRD21a activity (ABPP, ImageJ signal intensity) (% reduction at 0.8 µM SDE1) [6] of 9, a CsRD21a activity (ABPP, ImageJ signal intensity) (% reduction at 1.6 µM SDE1) [6] of 62 and a CsRD21a activity (ABPP, ImageJ signal intensity) (% reduction at 3.2 µM SDE1) [6] of 96. The DCG-04 labeling of papain (ABPP) (% reduction at 1.6 µM SDE1) [7] was 53.
